Measured values reported in patent US4110327A, “2,3 Diketo-piperazinocarbonylamino alkanoic acids and derivatives” (Toyama Chemical Co., Ltd., priority 1974, dated 1978).
≈ marks a conversion by molar mass, not a printed value.

How the values were obtained:
Assay type in all cases: cell-based
[1] = test system: Escherichia coli NIHJ; assay: MIC against standard strain, plate method; details: unit assumed
How it was run: (§1)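 Agar plate dilution MIC in heart infusion agar, pH 7.4. Inoculum was 10^4 cells per plate, from a suspension of 10^6 cells/ml.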

[2] = test system: Klebsiella pneumoniae; assay: MIC against standard strain, plate method; details: unit assumed
How it was run: as §1

[3] = test system: Proteus vulgaris 3027; assay: MIC against standard strain, plate method; details: Proteus vulgaris 3027, standard strain; unit assumed
How it was run: as §1

[4] = test system: Pseudomonas aeruginosa I.F.O.; assay: MIC against standard strain, plate method; details: unit assumed
How it was run: as §1

[5] = test system: Staphylococcus aureus 209p; assay: MIC against standard strain, plate method; details: unit assumed
How it was run: as §1

[6] = test system: Staphylococcus aureus; assay: MIC against clinical isolates; details: unit assumed
[7] = test system: Pseudomonas aeruginosa; assay: MIC against clinical isolates; details: unit assumed
[8] = test system: Klebsiella pneumoniae; assay: MIC against clinical isolates; details: unit assumed
[9] = test system: Escherichia coli; assay: MIC against clinical isolates; details: unit assumed
[10] = test system: Shigella flexneri; assay: MIC against clinical isolates; details: clinical isolate JS 11215; unit assumed
Procedure: (§2) The minimum inhibitory concentrations (MIC) was determined by the plate method disclosed in "Chemotherapy" (Japan), Vol. 16, (1968), pages 98 - 99. The culture medium used was a Heart infusion agar (pH 7.4). The number of the cells per plate used in the inoculum as 10^4 (10^6 cells/ml).
(§3) MIC was determined in the same manner as in the preceding paragraph (1).

[11] = test system: Shigella sonnei; assay: MIC against clinical isolates; details: clinical isolate JS 11232; unit assumed
Procedure: as §2, §3

[12] = test system: Salmonella typhi; assay: MIC against clinical isolates; details: unit assumed
[13] = test system: Salmonella typhi-murium; assay: MIC against clinical isolates; details: unit assumed

Compound	MIC [1] [µg/mL]	MIC [2] [µg/mL]	MIC [3] [µg/mL]	MIC [4] [µg/mL]	MIC [5] [µg/mL]	MIC ([6]; clinical isolate F-1) [µg/mL]	MIC ([6]; clinical isolate F-2) [µg/mL]	MIC ([6]; clinical isolate F-3) [µg/mL]	MIC ([6]; clinical isolate F-4) [µg/mL]	MIC ([6]; clinical isolate F-5) [µg/mL]	MIC ([6]; clinical isolate MS 8588) [µg/mL]	MIC ([6]; clinical isolate MS 8596) [µg/mL]	MIC ([6]; clinical isolate MS 8619) [µg/mL]	MIC ([6]; clinical isolate MS 8684) [µg/mL]	MIC ([6]; clinical isolate MS 8713) [µg/mL]	MIC ([7]; clinical isolate GN 82) [µg/mL]	MIC ([7]; clinical isolate GN 163) [µg/mL]	MIC ([7]; clinical isolate GN 221) [µg/mL]	MIC ([7]; clinical isolate GN 244) [µg/mL]	MIC ([7]; clinical isolate GN 376) [µg/mL]	other results
CCN1CCN(C(=O)NC(C(=O)NC2C(=O)N3C(C(=O)O)=C(CSc4nnnn4C)CSC23)c2ccccc2)C(=O)C1=O (stereo not shown) [compound 69]	< 0.79	< 0.4	< 0.79	12.5 (≈ 19.9 µM)	< 0.79	3.13 (≈ 4.97 µM)	1.56 (≈ 2.48 µM)	0.78 (≈ 1.24 µM)	3.13 (≈ 4.97 µM)	0.78 (≈ 1.24 µM)	1.56 (≈ 2.48 µM)	1.56 (≈ 2.48 µM)	0.78 (≈ 1.24 µM)	1.56 (≈ 2.48 µM)	1.56 (≈ 2.48 µM)	12.5 (≈ 19.9 µM)	12.5 (≈ 19.9 µM)	6.25 (≈ 9.93 µM)	25 (≈ 39.7 µM)	12.5 (≈ 19.9 µM)	MIC ([7]; clinical isolate GN 383): 25 µg/mL (≈ 39.7 µM); MIC ([7]; clinical isolate GN 1035): 50 µg/mL (≈ 79.4 µM); MIC ([7]; clinical isolate GN 1091): 12.5 µg/mL (≈ 19.9 µM); MIC ([7]; clinical isolate GN 2565): 50 µg/mL (≈ 79.4 µM); MIC ([7]; clinical isolate GN 2987): 12.5 µg/mL (≈ 19.9 µM); MIC ([7]; clinical isolate S-1): 25 µg/mL (≈ 39.7 µM); MIC ([7]; clinical isolate S-2): 25 µg/mL (≈ 39.7 µM); MIC ([7]; clinical isolate S-3): 50 µg/mL (≈ 79.4 µM); MIC ([7]; clinical isolate S-4): 50 µg/mL (≈ 79.4 µM); MIC ([8]; clinical isolate GN 917): 0.78 µg/mL (≈ 1.24 µM)
Cc1nnc(SCC2=C(C(=O)O)N3C(=O)[C@@H](NC(=O)Cn4cnnn4)[C@H]3SC2)s1 [Sodium Cephazolin, SodiumCephazolin, reference compound]	< 1.57	200	1.57	> 200	< 1.57	0.78	< 0.4	< 0.4	< 0.4	0.78	< 0.4	< 0.4	< 0.4	< 0.4	< 0.4	> 200	> 200	> 200	> 200	> 200	MIC ([9]; clinical isolate GN 3435): 1.56 µg/mL; MIC ([9]; clinical isolate GN 3452): 1.56 µg/mL; MIC ([9]; clinical isolate GN 3481): 1.56 µg/mL; MIC ([9]; clinical isolate GN 3611): 25 µg/mL; MIC ([9]; clinical isolate K-1): 1.56 µg/mL; MIC ([9]; clinical isolate K-2): 1.56 µg/mL; MIC ([9]; clinical isolate K-3): > 200 µg/mL; MIC ([9]; clinical isolate K-4): 3.13 µg/mL; MIC ([7]; clinical isolate GN 383): > 200 µg/mL; MIC ([7]; clinical isolate GN 1035): > 200 µg/mL; MIC ([7]; clinical isolate GN 1091): > 200 µg/mL; MIC ([7]; clinical isolate GN 2565): > 200 µg/mL; MIC ([7]; clinical isolate GN 2987): > 200 µg/mL; MIC ([7]; clinical isolate S-1): > 200 µg/mL; MIC ([7]; clinical isolate S-2): > 200 µg/mL; MIC ([7]; clinical isolate S-3): > 200 µg/mL; MIC ([7]; clinical isolate S-4): > 200 µg/mL; MIC ([8]; clinical isolate GN 917): 1.56 µg/mL; MIC ([8]; clinical isolate GN 4081): 3.13 µg/mL; MIC ([8]; clinical isolate GN 4117): 3.13 µg/mL
CC1(C)S[C@@H]2[C@H](NC(=O)C(C(=O)O)c3ccccc3)C(=O)N2[C@H]1C(=O)O (stereo partly shown) [Sodium Carbenicillum, reference compound]																					MIC [10]: > 200 µg/mL; MIC [11]: > 200 µg/mL; MIC ([12]; clinical isolate SL 819): 6.25 µg/mL; MIC ([12]; clinical isolate SL 2169): 3.13 µg/mL; MIC ([13]; clinical isolate SL 858): 12.5 µg/mL; MIC ([13]; clinical isolate SL 2136): > 200 µg/mL
